Measurements from patent publication US6451576B1, “Sesquiterpene synthases from grand fir (Abies grandis), and methods of use” (Washington State University Research Foundation, priority 1998, dated 2002).

Molecular target: T1, γ-humulene synthase (SEQ ID No:24) (Abies grandis, UniProt O64405)
T1 construct: For further subcloning of the amplified, full-length cDNA into the pSBETa vector for high-level expression, the pGAG5 insert was amplified; made in house; host or cells: E. coli XL1-Blue/pGAG5 or E. coli BL21(DE3)/pSBAG5
T1 sequence (O64405 1-593): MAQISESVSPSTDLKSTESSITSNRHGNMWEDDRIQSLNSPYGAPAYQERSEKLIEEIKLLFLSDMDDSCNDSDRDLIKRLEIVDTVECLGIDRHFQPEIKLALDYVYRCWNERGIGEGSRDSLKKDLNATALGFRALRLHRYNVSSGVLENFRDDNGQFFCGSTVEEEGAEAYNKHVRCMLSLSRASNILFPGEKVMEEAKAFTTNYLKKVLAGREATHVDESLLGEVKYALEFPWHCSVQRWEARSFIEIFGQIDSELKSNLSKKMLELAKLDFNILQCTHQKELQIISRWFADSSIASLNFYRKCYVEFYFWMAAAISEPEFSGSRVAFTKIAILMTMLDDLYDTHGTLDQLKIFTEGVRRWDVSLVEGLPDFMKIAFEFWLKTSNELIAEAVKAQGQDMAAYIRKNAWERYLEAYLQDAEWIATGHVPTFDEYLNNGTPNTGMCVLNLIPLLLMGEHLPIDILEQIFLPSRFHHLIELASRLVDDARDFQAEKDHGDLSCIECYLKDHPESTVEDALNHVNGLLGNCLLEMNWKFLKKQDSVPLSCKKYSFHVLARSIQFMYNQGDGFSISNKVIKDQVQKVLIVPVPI
Test: Kinetic parameters, metal ion requirement and substrate specificity of recombinant γ-humulene synthase
Type: biochemical
Method: The assay for recombinant sesquiterpene synthase (cyclase) activity was performed in 1 ml of buffer (extraction buffer without MnCl2 or the polymeric adsorbents) containing 3.5 μM [1-^3H]farnesyl diphosphate and the total protein extracted from a 5 ml bacterial culture to produce 10^5-10^6 dpm of product in 2 h at 31° C. The incubation mixture was overlaid with 1 ml pentane to trap volatile products. After incubation, the reaction mixture was extracted with pentane (3×1 ml) and the combined extract was passed through a MgSO4-silica gel column to provide the terpene hydrocarbon fractions as before. The columns were subsequently eluted with 3×1 ml of ether to collect any oxygenated products, and an aliquot of each fraction was taken for liquid scintillation counting to determine conversion rate. The monoterpene synthase and diterpene synthase activity assays were similarly performed as described in detail elsewhere (LaFever, R. E., et al., (1994) Arch. Biochem. Biophys. 313, 139-149; Bohlmann, J., et al., (1997) J. Biol. Chem. 272, 21784-21792; Lewinsohn, E., et al., (1991) Plant Physiol. 96, 38-43).
The substrate specificity and other kinetic. parameters of γ-humulene synthase (SEQ ID No:24) and δ-selinene synthase (SEQ ID No:20) were investigated in order to confirm the identification and classification of these enzymes. […] Neither of these sesquiterpene synthases requires K^+ or other monovalent cation for activity.
Substrate specificity of δ-selinene synthase (SEQ ID No:20) and γ-humulene synthase (SEQ ID No:24) was evaluated by comparing farnesyl diphosphate (C15) to geranyl diphosphate (C10) and geranylgeranyl diphosphate (C20) at saturation as precursors of the respective terpene olefins. […] The identities of the monoterpene products produced by the sesquiterpene synthases were determined by GLC-MS and are set forth in FIG. 4.

Row | SMILES | olefin formation from substrate at saturation, compared with farnesyl diphosphate
1 | CC(C)=CCC/C(C)=C/COP(=O)(O)OP(=O)(O)O [geranyl diphosphate, reference compound] | roughly half the rate
2 | CC(C)=CCC/C(C)=C/CC/C(C)=C/CC/C(C)=C/COP(=O)(O)OP(=O)(O)O [geranylgeranyl diphosphate, reference compound] | failed to generate detectable olefinic products
